SMILES strings stand for the structures.

Series [1] deals with Plutella xylostella. The experiment in a line: Test of efficacy on Plutella xylostella (cabbage leaf dip). It counts as in vivo. The following applies: foliar, 72 h, cabbage leaves dipped 30 seconds, second instar larvae, after 3 days, 25° C., read-out: insecticidal rate. Here is the method: (§1) 5 parts of the imidazo[1,2-a]pyridine compound of the present invention, 93.6 parts of dimethylformamide, and 1.4 parts of polyoxyethylene alkyl aryl ether were mixed and dissolved to prepare emulsion (I) containing 5% of the active ingredient.
(§2) An insecticidal rate was calculated according to the following expression: […]
The emulsion (I) was diluted with water such that the concentration of the compound of the present invention was 125 ppm. Cabbage leaves were dipped in the dilution for 30 seconds. The resulting cabbage leaves were placed in a petri dish. Five second instar larvae of Plutella xylostella were released thereto. The petri dish was placed in a thermostat chamber having a temperature of 25° C. and a humidity of 60%. Life and death were determined after 3 days from the release of the insects, and the insecticidal rate was calculated. The test was conducted in duplicate.

For series [2], the system named is Phyllotreta striolata. The experiment in a line: Test of efficacy on Phyllotreta striolata (spray on Qing geng cai seedlings). The format is in vivo. The following applies: 168 h, 125 ppm sprayed to Qing geng cai seedlings, adults, after 7 days, 25° C., read-out: insecticidal rate. The procedure: as §1, §2
The emulsion (I) was diluted with water such that the concentration of the compound of the present invention was 125 ppm to prepare a test chemical. The test chemical was sprayed to Qing geng cai seedlings (at the seventh true leaf stage) planted in 10-cm pots. The Qing geng cai seedlings were dried in air and then placed in a plastic cup. Ten Phyllotreta striolata adults were released thereto. The plastic cup was stored in a thermostat chamber having a temperature of 25° C. and a humidity of 65%. Life and death were determined after 7 days from the release of the insects, and the insecticidal rate was calculated. The test was conducted in duplicate.

Take `CCS(=O)(=O)c1c(-n2cc(-c3ccc(OC(F)(F)F)cc3)cn2)nc2ccc(C(F)(F)F)cn12` [a-9]: in series [1], the pest or weed control at 125 ppm is at least 80%.

Take `CCS(=O)(=O)c1c(-c2ncc(-c3ccc(OC(F)(F)F)cc3)n2C)nc2cc(C(F)(F)F)ccn12` [a-10]: the pest or weed control at 125 ppm in series [1] and in series [2] was at least 80% throughout.

As for `CCS(=O)(=O)c1c(-c2ncc(/C=C/C(F)(F)C(F)(F)F)n2C)nc2ccc(C(F)(F)F)cn12` [a-13], the pest or weed control at 125 ppm in series [1] and in series [2] was at least 80% in each case.

In the case of `CCS(=O)(=O)c1c(-c2ncc(C=C(Cl)C(F)(F)F)n2C)nc2ccc(Cl)cn12` [a-23], the pest or weed control at 125 ppm in series [1] and in series [2] was at least 80% in each case.

Regarding `CCS(=O)(=O)c1c(-c2ncc(/C=C(\Cl)C(F)(F)F)n2C)nc2cc(C(F)(F)F)ccn12` [a-24], in series [1], the pest or weed control at 125 ppm was at least 80%.

As to `CCS(=O)(=O)c1c(-c2cn(CC(F)(F)C(F)(F)C(F)(F)F)cn2)nc2ccc(C(F)(F)F)cn12` [a-12], the pest or weed control at 125 ppm in series [1] and in series [2] was at least 80% throughout.

For the compound `CCS(=O)(=O)c1c(-c2ncc(/C=C(\F)C(F)(F)C(F)(F)F)n2C)nc2ccc(C(F)(F)F)cn12` [a-17], the pest or weed control at 125 ppm in series [1] and in series [2] was at least 80% throughout.

As to `CCS(=O)(=O)c1c(-c2ncc(C=C(Cl)C(F)(F)F)n2C)nc2cc(Cl)ccn12` [a-22], the pest or weed control at 125 ppm in series [1] and in series [2] was at least 80% in each case.

For `CCS(=O)(=O)c1c(-c2ncc(C=C(F)C(F)(F)C(F)(F)F)n2C)nc2ccc(C(F)(F)F)cn12` [a-20], the pest or weed control at 125 ppm in series [1] and in series [2] was at least 80% in each case.

As for `CCS(=O)(=O)c1c(-c2ncc(-c3ccc(OC(F)(F)F)c(Cl)c3)n2C)nc2ccc(C(F)(F)F)cn12` [a-7], the pest or weed control at 125 ppm in series [1] and in series [2] was at least 80% in each case.

With `CCS(=O)(=O)c1c(-c2ncc(-c3ccc(OC(F)(F)C(F)F)cc3)n2C)nc2ccc(C(F)(F)F)cn12` [a-1], the pest or weed control at 125 ppm in series [1] is at least 80%.

Take `CCS(=O)(=O)c1c(-c2ncn(-c3ccc(OC(F)(F)F)cc3)n2)nc2ccc(C(F)(F)F)cn12` [a-6]: the pest or weed control at 125 ppm in series [1] and in series [2] was at least 80% in each case.

For the compound `CCS(=O)(=O)c1c(-c2cn(-c3ccc(OC(F)(F)F)cc3)cn2)nc2ccc(C(F)(F)F)cn12` [a-5], the pest or weed control at 125 ppm in series [1] and in series [2] was at least 80% in each case.

`CCS(=O)(=O)c1c(-c2ncc(C=C(Cl)C(F)(F)F)n2C)nc2cc(C3CC3)ccn12` [a-21]: the pest or weed control at 125 ppm in series [1] and in series [2] was at least 80% each time.

`CCS(=O)(=O)c1c(-c2cn(/C=C(\F)C(F)(F)C(F)(F)F)cn2)nc2ccc(C(F)(F)F)cn12` [a-11]: the pest or weed control at 125 ppm in series [1] and in series [2] was at least 80% in each case.

`CCS(=O)(=O)c1c(-c2ncc(-c3ccc(C(F)(F)F)c(Cl)c3)n2C)nc2ccc(C(F)(F)F)cn12` [a-8]: in series [1], the pest or weed control at 125 ppm is at least 80%.

With `CCS(=O)(=O)c1c(-c2ncc(-c3ccc(C(F)(F)F)nc3)n2C)nc2ccc(C(F)(F)F)cn12` [a-2], the pest or weed control at 125 ppm in series [1] and in series [2] was at least 80% each time.

Regarding `CCS(=O)(=O)c1c(-c2ncc(C=C(Br)Br)n2C)nc2ccc(C(F)(F)F)cn12` [a-14], the melting point – broadly, the temperature of the solid-liquid transition – lay in the range of 233 to 235 °C.

In the case of `CCS(=O)(=O)c1c(-c2ncc(/C=C(/F)C(F)(F)C(F)(F)F)n2C)nc2ccc(C(F)(F)F)cn12` [a-16], the pest or weed control at 125 ppm in series [2] is at least 80%.

In turn, `CCS(=O)(=O)c1c(-c2ncc(C=C(Cl)Cl)n2C)nc2ccc(C(F)(F)F)cn12` [a-15] registered a melting point of 236 to 238 °C.

For `CCS(=O)(=O)c1c(-c2ncc(-c3ccc(OC(F)(F)F)cc3)n2C)nc2ccc(C(F)(F)F)cn12` [a-3, 3-(ethylsulfonyl)-2-(1-methyl-5-(4-(trifluoromethoxy)phenyl)-1H-imidazol-2-yl)-6-(trifluoromethyl)imidazo[1,2-a]pyridine], the pest or weed control at 125 ppm in series [1] and in series [2] was at least 80% throughout.

With `CCS(=O)(=O)c1c(-c2ncc(C(F)C(F)(C(F)(F)F)C(F)(F)F)n2C)nc2ccc(C(F)(F)F)cn12` (centres unmarked) [a-4], the pest or weed control at 125 ppm in series [1] was at least 80%.

In the case of `CCS(=O)(=O)c1c(-c2ncc(C=C(F)C(F)(F)C(F)(F)F)n2C)nc2cc(C(F)(F)F)ccn12` [a-19], the pest or weed control at 125 ppm in series [1] and in series [2] was at least 80% in each case.

The record behind these values is patent publication US20230357232A1, “IMIDAZO[1,2-A]PYRIDINE COMPOUND AND PEST CONTROL AGENT” (Nippon Soda Co., Ltd., priority 2020, published 2023).
